{"source": "patent US6677368B2", "about": "“4-aryl substituted indolinones” (Sugen, Inc., priority 2000, dated 2004)", "type_in_all_cases": "biochemical", "key": {"[1]": {"molecular_target": "EGFR (Homo sapiens, UniProt P00533)", "sequence (P00533 25-1210, species assumed)": "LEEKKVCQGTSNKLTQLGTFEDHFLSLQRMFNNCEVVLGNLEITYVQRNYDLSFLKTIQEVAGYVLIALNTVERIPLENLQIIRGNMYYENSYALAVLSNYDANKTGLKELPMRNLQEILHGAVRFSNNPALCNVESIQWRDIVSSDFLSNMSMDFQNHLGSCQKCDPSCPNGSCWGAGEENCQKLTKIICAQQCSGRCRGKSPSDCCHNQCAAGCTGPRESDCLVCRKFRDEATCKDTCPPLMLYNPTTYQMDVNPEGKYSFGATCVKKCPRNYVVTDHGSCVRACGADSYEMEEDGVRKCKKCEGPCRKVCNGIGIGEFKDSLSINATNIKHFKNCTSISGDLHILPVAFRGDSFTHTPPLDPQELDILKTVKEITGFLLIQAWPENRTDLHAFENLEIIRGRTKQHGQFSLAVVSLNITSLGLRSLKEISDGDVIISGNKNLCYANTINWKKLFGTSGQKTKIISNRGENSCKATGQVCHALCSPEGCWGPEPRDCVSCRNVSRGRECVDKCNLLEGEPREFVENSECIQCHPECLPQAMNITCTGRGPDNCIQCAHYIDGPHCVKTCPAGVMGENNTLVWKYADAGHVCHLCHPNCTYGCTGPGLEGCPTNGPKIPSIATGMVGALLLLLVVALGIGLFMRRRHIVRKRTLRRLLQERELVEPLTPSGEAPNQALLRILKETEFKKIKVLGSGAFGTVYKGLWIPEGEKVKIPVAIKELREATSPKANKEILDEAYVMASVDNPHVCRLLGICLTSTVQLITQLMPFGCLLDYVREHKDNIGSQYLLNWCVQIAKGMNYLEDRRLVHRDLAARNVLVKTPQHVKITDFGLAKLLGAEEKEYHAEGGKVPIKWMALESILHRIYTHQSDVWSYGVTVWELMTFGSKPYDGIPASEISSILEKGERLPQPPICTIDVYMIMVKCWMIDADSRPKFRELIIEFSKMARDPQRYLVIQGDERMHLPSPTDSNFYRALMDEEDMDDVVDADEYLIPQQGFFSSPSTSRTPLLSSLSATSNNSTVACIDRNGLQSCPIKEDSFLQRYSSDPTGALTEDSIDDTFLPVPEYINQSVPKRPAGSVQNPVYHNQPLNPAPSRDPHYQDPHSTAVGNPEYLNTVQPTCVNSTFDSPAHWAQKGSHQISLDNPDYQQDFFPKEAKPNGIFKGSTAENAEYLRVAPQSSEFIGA", "experiment": "EGFR kinase inhibition"}, "[2]": {"molecular_target": "FGFR1 (Homo sapiens, UniProt P11362)", "sequence (P11362 22-822, species assumed)": "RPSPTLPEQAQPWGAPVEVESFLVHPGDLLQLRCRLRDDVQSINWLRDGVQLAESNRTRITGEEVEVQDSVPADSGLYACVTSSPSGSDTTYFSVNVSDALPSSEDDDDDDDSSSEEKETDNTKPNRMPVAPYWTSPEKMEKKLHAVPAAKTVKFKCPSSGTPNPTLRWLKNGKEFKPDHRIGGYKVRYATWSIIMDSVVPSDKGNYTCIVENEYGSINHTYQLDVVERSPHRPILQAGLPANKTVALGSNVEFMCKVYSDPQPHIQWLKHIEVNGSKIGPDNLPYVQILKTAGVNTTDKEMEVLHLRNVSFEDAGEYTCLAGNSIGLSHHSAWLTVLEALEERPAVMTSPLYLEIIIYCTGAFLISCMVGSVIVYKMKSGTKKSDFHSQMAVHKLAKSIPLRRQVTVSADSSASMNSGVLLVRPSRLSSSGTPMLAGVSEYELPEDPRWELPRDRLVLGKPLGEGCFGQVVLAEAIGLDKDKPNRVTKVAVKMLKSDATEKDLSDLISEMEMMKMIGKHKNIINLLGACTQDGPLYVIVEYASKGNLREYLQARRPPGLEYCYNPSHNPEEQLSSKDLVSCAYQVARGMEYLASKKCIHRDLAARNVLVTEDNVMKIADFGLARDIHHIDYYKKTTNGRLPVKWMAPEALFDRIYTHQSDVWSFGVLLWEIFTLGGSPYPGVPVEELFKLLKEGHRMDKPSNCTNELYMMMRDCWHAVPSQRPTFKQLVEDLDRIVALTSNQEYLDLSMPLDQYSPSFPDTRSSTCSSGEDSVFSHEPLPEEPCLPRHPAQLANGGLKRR", "experiment": "FGFR1 bioassay (ELISA, in vitro kinase activity)", "details": "purified GST-FGFR1, poly(Glu-Tyr) substrate", "protocol": "This assay is used to measure the in vitro kinase activity of FGF1-R in an ELISA assay.\n1. Costar 96-well ELISA plates (Corning Catalog #3369).\n2. Poly(Glu-Tyr) (Sigma Catalog #P0275).\n4. 50 mM Hepes Buffer Solution.\n5. Blocking Buffer (5% BSA/PBS).\n6. Purified GST-FGFR1 (SUGEN, Inc.)\n7. Kinase Dilution Buffer. Mix 500 μl 1M Hepes (GIBCO), 20 μl 5% BSA/PBS, 10 μl 100 mM sodium orthovanadate and 50 μl 5M NaCl.\n9. ATP/MnCl2 phosphorylation mix: mix 20 μL ATP, 400 μL 1M MnCl2 and 9.56 ml dH2O.\n10. NUNC 96-well V bottom polypropylene plates (Applied Scientific Catalog #AS-72092).\n12. 0.05% TBST Add 500 μL TWEEN to 1 liter TBS.\n13. Rabbit polyclonal anti-phosphotyrosine serum (SUGEN, Inc.).\n14. Goat anti-rabbit IgG peroxidase conjugate (Biosource, Catalog #ALI0404).\n1. Coat Costar 96 well ELISA plates with 1 μg per well Poly(Glu-Tyr) in 100 μl PBS. Store overnight at 4° C.\n2. Wash coated plates once with PBS.\n3. Add 150 μL of 5%BSA/PBS Blocking Buffer to each well. Incubate, with shaking, for 1 hr at room temperature.\n4. Wash plate 2× with PBS, then once with 50 mM Hepes. Pat plates on a paper towel to remove excess liquid and bubbles.\n5. Add 25 μL of 0.4 mM test compound in 4% DMSO or 4% DMSO alone (controls) to plate.\n6. Dilute purified GST-FGFR1 in Kinase Dilution Buffer (5 ng kinase/50 μl KDB/well).\n7. Add 50 μL of diluted kinase to each well.\n8. Start kinase reaction by adding 25 μl/well of freshly prepared ATP/Mn++ (0.4 ml 1M MnCl2, 40 μL 10 mM ATP, 9.56 ml dH2O), freshly prepared).\n9. Stop reaction with 25 μL of 0.5M EDTA.\n10. Wash plate 4× with fresh TBST.\n11. Make up Antibody Dilution Buffer: For 50 ml, mix 5 ml of 5% BSA, 250 μl of 5% milk and 50 μl of 100 mM sodium vanadate, bring to final volume with 0.05% TBST.\n12. Add 100 μl per well of anti-phosphotyrosine (1:10000 dilution in ADB). Incubate, with shaking for 1 hr. at room temperature.\n14. Add 100 μl per well of Biosource Goat anti-rabbit IgG peroxidase conjugate (1:6000 dilution in ADB). Incubate, with shaking for 1 hr. at room temperature.\n15. Wash as in step 10 and then with PBS to remove bubbles and excess TWEEN.\n16. Add 100 μl of ABTS/H2O2 solution to each well.\n17. Incubate, with shaking, for 10 to 20 minutes. Remove any bubbles.\n18. Read assay on Dynatech MR7000 ELISA reader: test filter at 410 nM, reference filter at 630 nM."}, "[3]": {"molecular_target": "T1, PDGFR (UniProt P09619)", "T1 construct": "PDGFR-β expressing NIH 3T3 cell lysate (SUGEN, Inc.)", "experiment": "PDGFR bioassay (ELISA, in vitro kinase activity)", "details": "PDGFR-β expressing NIH 3T3 cell lysate, 20 μM ATP", "protocol": "This assay is used to the in vitro kinase activity of PDGFR in an ELISA assay.\n1. Corning 96-well ELISA plates\n2. 28D4C10 monoclonal anti-PDGFR antibody (SUGEN, Inc.).\n5. Blocking Buffer (same as for EGFR bioassay).\n6. PDGFR-β expressing NIH 3T3 cell lysate (SUGEN, Inc.).\n11. Kinase buffer phosphorylation mix: for 10 ml, mix 250 μl 1M TRIS, 200 μl 5M NaCl, 100 μl 1M MnCl2 and 501l 100 mM Triton X-100 in enough dH2O to make 10 ml.\n12. NUNC 96-well V bottom polypropylene plates.\n14. Rabbit polyclonal anti-phosphotyrosine serum (SUGEN, Inc.).\n15. Goat anti-rabbit IgG peroxidase conjugate (Biosource Cat. No. ALI0404).\n17. Hydrogen peroxide, 30% solution.\n1. Coat Corning 96 well ELISA plates with […] 28D4C 10 in 100 μl PBS per well, hold overnight at 4° C.\n2. Remove unbound 28D4C10 from wells by inverting plate to remove liquid. Wash 1× with dH2O. Pat the plate on a paper towel to remove excess liquid.\n3. Add 150 μl of Blocking Buffer to each well. Incubate for 30 min. at room temperature with shaking.\n4. Wash plate 3× with deionized water, then once with TBST. Pat plate on a paper towel to remove excess liquid and bubbles.\n5. Dilute lysate in HNTG (10 μg lysate/100 μl HNTG).\n6. Add 100 μl of diluted lysate to each well. Shake at room temperature for 60 min.\n7. Wash plates as described in Step 4.\n8. Add 80 μl working kinase buffer mix to ELISA plate containing captured PDGFR.\n9. Dilute test compound 1:10 in TBS in 96-well polypropylene plates.\n10. Add 10 μl diluted test compound to -ELISA plate. To control wells, add 10 μl TBS+10% DMSO. Incubate with shaking for 30 minutes at room temperature.\n11. Add 10 μl ATP directly to all wells except negative control well (final well volume should be approximately 100 μl with 20 μM ATP in each well.) Incubate 30 minutes with shaking.\n12. Stop reaction by adding 10 μl of EDTA solution to each well.\n13. Wash 4× with deionized water, twice with TBST.\n14. Add 100 μl anti-phosphotyrosine (1:3000 dilution in TBST) per well.\nIncubate with shaking for 30-45 min. at room temperature.\n16. Add 100 μl Biosource Goat anti-rabbit IgG peroxidase conjugate (1:2000 dilution in TBST) to each well. Incubate with shaking for 30 min. at room temperature.\n18. Add 100 μl of ABTS/H2O2 solution to each well.\n19. Incubate 10 to 30 minutes with shaking. Remove any bubbles.\n20. If necessary stop reaction with the addition of 100 μl 0.2 M HCl per well.\n21. Read assay on Dynatech MR7000 ELISA reader with test filter at 410 nM and reference filter at 630 nM."}, "[4]": {"molecular_target": "FGFR3 (Homo sapiens, UniProt P22607)", "sequence (P22607 23-806, species assumed)": "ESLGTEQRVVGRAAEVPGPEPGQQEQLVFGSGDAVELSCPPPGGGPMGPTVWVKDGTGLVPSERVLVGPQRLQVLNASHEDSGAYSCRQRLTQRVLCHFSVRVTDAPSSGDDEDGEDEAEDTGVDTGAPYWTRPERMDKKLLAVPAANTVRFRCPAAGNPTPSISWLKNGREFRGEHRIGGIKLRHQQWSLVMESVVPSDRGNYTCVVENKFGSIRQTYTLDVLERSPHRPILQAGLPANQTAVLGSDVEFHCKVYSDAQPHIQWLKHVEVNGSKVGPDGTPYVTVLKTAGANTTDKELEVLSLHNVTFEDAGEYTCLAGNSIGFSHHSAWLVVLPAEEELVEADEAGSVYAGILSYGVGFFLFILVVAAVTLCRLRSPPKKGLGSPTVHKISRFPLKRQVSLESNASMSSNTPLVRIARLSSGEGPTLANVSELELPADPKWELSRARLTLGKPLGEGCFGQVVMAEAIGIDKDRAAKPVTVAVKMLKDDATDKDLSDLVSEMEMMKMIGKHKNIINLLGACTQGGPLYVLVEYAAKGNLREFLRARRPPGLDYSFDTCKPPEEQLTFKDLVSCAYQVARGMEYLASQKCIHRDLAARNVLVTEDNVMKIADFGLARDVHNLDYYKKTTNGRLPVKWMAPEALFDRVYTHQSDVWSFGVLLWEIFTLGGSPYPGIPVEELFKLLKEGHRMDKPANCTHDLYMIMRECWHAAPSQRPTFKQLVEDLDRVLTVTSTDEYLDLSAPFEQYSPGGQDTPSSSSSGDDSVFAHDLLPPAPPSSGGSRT", "experiment": "FGFR3 kinase inhibition"}}}
{"smiles": "Cc1[nH]c(/C=C2\\C(=O)Nc3cccc(-c4ccc(F)cc4)c32)c(C)c1C(=O)NCCN1CCCC1", "note": "[Example 6, 5-[4-(4-Fluoro-phenyl)-2-oxo-1,2-dihydro-indol-3-ylidenemethyl]-2,4-dimethyl-1H-pyrrole-3-carboxylic Acid (2-Pyrrolidin-1-yl-ethyl)-amide]", "values": [{"measurement": "IC50", "setting": "[1]", "value": 16200, "unit": "nM"}, {"measurement": "IC50", "setting": "[2]", "value": 57, "unit": "nM"}, {"measurement": "IC50", "setting": "[3]", "value": 2950, "unit": "nM"}]}
{"smiles": "CCN(CC)CCNC(=O)c1c(C)[nH]c(/C=C2\\C(=O)Nc3cccc(-c4cccc(F)c4)c32)c1C", "note": "[Example 13, 5-[4-(3-Fluoro-phenyl)-2-oxo-1,2-dihydro-indol-3-ylidenemethyl]-2,4-dimethyl-1H-pyrrole-3-carboxylic Acid (2-Diethylamino-ethyl)-amide]", "values": [{"measurement": "IC50", "setting": "[4]", "value": 21, "unit": "nM"}, {"measurement": "IC50", "setting": "[1]", "value": 13100, "unit": "nM"}, {"measurement": "IC50", "setting": "[2]", "value": "< 9.1", "unit": "nM"}, {"measurement": "IC50", "setting": "[3]", "value": 2320, "unit": "nM"}]}
{"smiles": "COc1ccc(-c2cccc3c2/C(=C/c2[nH]c(C)cc2C(=O)NCCN2CCCC2)C(=O)N3)cc1", "note": "[Example 41, 2-[4-(4-Methoxy-phenyl)-2-oxo-1,2-dihydro-indol-3-ylidenemethyl]-5-methyl-1H-pyrrole-3-carboxylic Acid (2-Pyrrolidin-1-yl-ethyl)-amide]", "values": [{"measurement": "IC50", "setting": "[4]", "value": 790, "unit": "nM"}, {"measurement": "IC50", "setting": "[2]", "value": 560, "unit": "nM"}, {"measurement": "IC50", "setting": "[3]", "value": 3840, "unit": "nM"}]}
{"smiles": "CCN(CC)CCNC(=O)c1c(C)[nH]c(/C=C2\\C(=O)Nc3cccc(-c4cccc(OC)c4)c32)c1C", "note": "[Example 46, 5-[4-(3-Methoxy-phenyl)-2-oxo-1,2-dihydro-indol-3-ylidenemethyl]-2,4-dimethyl-1H-pyrrole-3-carboxylic Acid (2-Diethylamino-ethyl)-amide]", "values": [{"measurement": "IC50", "setting": "[4]", "value": 9, "unit": "nM"}, {"measurement": "IC50", "setting": "[2]", "value": 22, "unit": "nM"}, {"measurement": "IC50", "setting": "[3]", "value": 4190, "unit": "nM"}]}
{"smiles": "COc1cccc(-c2cccc3c2/C(=C/c2[nH]c(C)c(C(=O)NCCn4ccnn4)c2C)C(=O)N3)c1", "note": "[Example 48, 5-[4-(3-Methoxy-phenyl)-2-oxo-1,2-dihydro-indol-3-ylidenemethyl]-2,4-dimethyl-1H-pyrrole-3-carboxylic Acid (2-[1,2,3]Triazol-1-yl-ethyl)-amide]", "values": [{"measurement": "IC50", "setting": "[4]", "value": 190, "unit": "nM"}, {"measurement": "IC50", "setting": "[2]", "value": 600, "unit": "nM"}, {"measurement": "IC50", "setting": "[3]", "value": 8390, "unit": "nM"}]}
{"smiles": "COc1cccc(-c2cccc3c2/C(=C/c2[nH]c(C)c(C(=O)NCCN(C(C)C)C(C)C)c2C)C(=O)N3)c1", "note": "[Example 52, 5-[4-(3-Methoxy-phenyl)-2-oxo-1,2-dihydro-indol-3-ylidenemethyl]-2,4-dimethyl-1H-pyrrole-3-carboxylic Acid (2-Diisopropylamino-ethyl)-amide]", "values": [{"measurement": "IC50", "setting": "[4]", "value": "< 9.1", "unit": "nM"}, {"measurement": "IC50", "setting": "[2]", "value": 35, "unit": "nM"}, {"measurement": "IC50", "setting": "[3]", "value": 1540, "unit": "nM"}]}
{"smiles": "Cc1[nH]c(/C=C2\\C(=O)Nc3cccc(-c4ccc(Br)cc4)c32)c(C)c1C(=O)N1CCN(C)CC1", "note": "[Example 53]", "values": [{"measurement": "IC50", "setting": "[4]", "value": 680, "unit": "nM"}, {"measurement": "IC50", "setting": "[2]", "value": 1150, "unit": "nM"}, {"measurement": "IC50", "setting": "[3]", "value": "> 20000", "unit": "nM"}]}
{"smiles": "Cc1[nH]c(/C=C2\\C(=O)Nc3cccc(-c4ccc(Br)cc4)c32)c(C)c1C(=O)N1C[C@@H](C)N[C@@H](C)C1", "note": "[Example 57, 4-(4-Bromo-phenyl)-3-[4-[(cis)-3,5-dimethyl-piperazine-1-carbonyl)-3,5-dimethyl-1H-pyrrol-2-ylmethylene]-1,3-dihydro-indol-2-one]", "values": [{"measurement": "IC50", "setting": "[4]", "value": 87, "unit": "nM"}, {"measurement": "IC50", "setting": "[2]", "value": 260, "unit": "nM"}, {"measurement": "IC50", "setting": "[3]", "value": "> 20000", "unit": "nM"}]}
{"smiles": "Cc1cc(C(=O)NCCN2CCCC2)c(/C=C2\\C(=O)Nc3cccc(-c4ccc(Br)cc4)c32)[nH]1", "note": "[Example 58, 2-[4-(4-Bromo-phenyl)-2-oxo-1,2-dihydro-indol-3-ylidenemethyl]-5-methyl-1H-pyrrole-3-carboxylic Acid (2-Pyrrolidin-1-yl-ethyl)-amide]", "values": [{"measurement": "IC50", "setting": "[4]", "value": 220, "unit": "nM"}, {"measurement": "IC50", "setting": "[2]", "value": 250, "unit": "nM"}, {"measurement": "IC50", "setting": "[3]", "value": 16100, "unit": "nM"}]}
{"smiles": "CCN(CC)CCNC(=O)c1c[nH]c(/C=C2\\C(=O)Nc3cccc(-c4ccc(Br)cc4)c32)c1C", "note": "[Example 61, 5-[4-(4-Bromo-phenyl)-2-oxo-1,2-dihydro-indol-3-ylidenemethyl]-4-methyl-1H-pyrrole-3-carboxylic Acid (2-Diethylamino-ethyl)-amide]", "values": [{"measurement": "IC50", "setting": "[4]", "value": "< 9.1", "unit": "nM"}, {"measurement": "IC50", "setting": "[2]", "value": 21, "unit": "nM"}, {"measurement": "IC50", "setting": "[3]", "value": 9120, "unit": "nM"}]}
